# According to patent publication US9073853B2, “Cycloalkane carboxylic acid derivatives as CXCR3 receptor antagonists” (Sanofi, priority 2011, dated 2015):
# Biological target: human CXCR3-A receptor (Homo sapiens (Human), UniProt P49682)
# Assay: 125I-CXCL10 competition radioligand binding assay
# Settings: displacement of 125I-CXCL10 from membranes of CHO cells expressing human recombinant CXCR3-A
# How it was run: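 Membranes from a recombinant cell line expressing human CXCR3-A (10-20 μg protein) were incubated with 125I-CXCL10 and test compound for 60 min at 25° C, then filtered onto PEI-soaked GF/B filters and gamma-counted. IC50 and Hill slope came from four-parameter nonlinear fitting of competition curves.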
# human CXCR3-A receptor, sequence (P49682 whole entry): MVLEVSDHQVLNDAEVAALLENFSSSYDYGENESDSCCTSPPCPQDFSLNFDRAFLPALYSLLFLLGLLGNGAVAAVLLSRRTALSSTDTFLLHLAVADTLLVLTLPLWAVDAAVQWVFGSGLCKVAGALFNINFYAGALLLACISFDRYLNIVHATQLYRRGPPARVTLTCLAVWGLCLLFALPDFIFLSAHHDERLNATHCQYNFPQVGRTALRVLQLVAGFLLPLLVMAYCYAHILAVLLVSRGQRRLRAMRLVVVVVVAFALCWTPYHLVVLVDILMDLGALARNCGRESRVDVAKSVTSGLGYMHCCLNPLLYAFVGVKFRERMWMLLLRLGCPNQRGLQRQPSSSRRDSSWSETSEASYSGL
row,SMILES,IC50 [nM]
1,"COc1cc(CN(C[C@H]2CC[C@H](C(=O)O)CC2)C2CCc3cc(Cl)ccc32)ccc1OCCN1C(=O)CN(C)C1=O (stereo partly drawn) [Example 52, trans-4-[((5-Chloro-indan-1-yl)-{3-methoxy-4-[2-(3-methyl-2,5-dioxo-imidazolidin-1-yl)-ethoxy]-benzyl}-amino)-methyl]-cyclohexanecarboxylic acid]",177
2,"CCc1cc(CN(C[C@H]2CC[C@H](C(=O)O)CC2)C(C)c2ccc3c(c2)CCO3)ccc1OCCN1C(=O)CCC1=O (stereo partly drawn) [Example 76, trans-4-[([1-(2,3-Dihydro-benzofuran-5-yl)-ethyl]-{4-[2-(2,5-dioxo-pyrrolidin-1-yl)-ethoxy]-3-ethyl-benzyl}-amino)-methyl]-cyclohexanecarboxylic acid]",45
3,"COc1cc(CN(CC2CC(C(=O)O)C2)[C@H]2CCc3cc(Cl)ccc32)ccc1OCCN1C(=O)CCC1=O (stereo partly drawn) [Example 158, 3-[(((S)-5-Chloro-indan-1-yl)-{4-[2-(2,5-dioxo-pyrrolidin-1-yl)-ethoxy]-3-methoxy-benzyl}-amino)-methyl]-cyclobutanecarboxylic acid]",1060
4,"COc1cc(CN(C[C@H]2CC[C@H](C(=O)O)CC2)C2CCc3cc(Cl)ccc32)ccc1CCCN1C(=O)CN(C)C1=O (stereo partly drawn) [Example 50, trans-4-[((5-Chloro-indan-1-yl)-{3-methoxy-4-[3-(3-methyl-2,5-dioxo-imidazolidin-1-yl)-propyl]-benzyl}-amino)-methyl]-cyclohexanecarboxylic acid]",1240
5,"CCC(c1ccc2c(c1)CCO2)N(Cc1ccc(OCCN2C(=O)CN(C)C2=O)c(OC)c1)C[C@H]1CC[C@H](C(=O)O)CC1 (stereo partly drawn) [Example 28, trans-4-[([1-(2,3-Dihydro-benzofuran-5-yl)-propyl]-{3-methoxy-4-[2-(3-methyl-2,5-dioxo-imidazolidin-1-yl)-ethoxy]-benzyl}-amino)-methyl]-cyclohexanecarboxylic acid]",81
6,"CCc1cc(CN(C[C@H]2CC[C@H](C(=O)O)CC2)[C@H](C)c2ccc(Cl)c(F)c2)ccc1OCCN1C(=O)CCC1=O [Example 90, trans-4-[([(R)-1-(4-Chloro-3-fluoro-phenyl)-ethyl]-{4-[2-(2,5-dioxo-pyrrolidin-1-yl)-ethoxy]-3-ethyl-benzyl}-amino)-methyl]-cyclohexanecarboxylic acid]",494
7,"CCC(c1ccc(Cl)cc1)N(Cc1ccc(OCCN2C(=O)CCC2=O)c(OC)c1)C[C@H]1[C@H](C(=O)O)C1(C)C (stereo partly drawn) [Example 117, (1S,3S)-3-[([1-(4-Chloro-phenyl)-propyl]-{4-[2-(2,5-dioxo-pyrrolidin-1-yl)-ethoxy]-3-methoxy-benzyl}-amino)-methyl]-2,2-dimethyl-cyclopropanecarboxylic acid]",71
8,"Cc1cc(CN([C@H]2C[C@@H](C(=O)O)C2)[C@H](C)c2ccc(Cl)cc2)ccc1OCCN1C(=O)CN(C)C1=O [Example 153, cis-3-([(R)-1-(4-Chloro-phenyl)-ethyl]-{3-methyl-4-[2-(3-methyl-2,5-dioxo-imidazolidin-1-yl)-ethoxy]-benzyl}-amino)-cyclobutanecarboxylic acid]",294
9,"Cc1cc(CN([C@H]2C[C@@H](C(=O)O)C2)[C@H](C)c2ccc(Cl)cc2)ccc1OCCN1C(=O)CCC1=O [Example 132, cis-3-([(R)-1-(4-Chloro-phenyl)-ethyl]-{4-[2-(2,5-dioxo-pyrrolidin-1-yl)-ethoxy]-3-methyl-benzyl}-amino)-cyclobutanecarboxylic acid]",170
10,"COc1cc(CN(CC2CCCC(C(=O)O)C2)C(C)c2ccc3c(c2)CCO3)ccc1OCCN1C(=O)CCC1=O (centres unmarked) [Example 41, 3-[([1-(2,3-Dihydro-benzofuran-5-yl)-ethyl]-{4-[2-(2,5-dioxo-pyrrolidin-1-yl)-ethoxy]-3-methoxy-benzyl}-amino)-methyl]-cyclohexanecarboxylic acid]",131
11,"Cc1cc(CN(C[C@H]2CC[C@H](C(=O)O)CC2)C(C)c2ccc3c(c2)CCO3)ccc1OCCN1C(=O)CCC1=O (stereo partly drawn) [Example 17, trans-4-[([1-(2,3-Dihydro-benzofuran-5-yl)-ethyl]-{4-[2-(2,5-dioxo-pyrrolidin-1-yl)-ethoxy]-3-methyl-benzyl}-amino)-methyl]-cyclohexanecarboxylic acid]",44
12,"CCC(c1ccc2c(c1)CCO2)N(Cc1ccc(OCCN2C(=O)CCC2=O)c(OC)c1)C[C@H]1CC[C@H](C(=O)O)CC1 (stereo partly drawn) [Example 18, trans-4-[([1-(2,3-Dihydro-benzofuran-5-yl)-propyl]-{4-[2-(2,5-dioxo-pyrrolidin-1-yl)-ethoxy]-3-methoxy-benzyl}-amino)-methyl]-cyclohexanecarboxylic acid]",64
13,"CCC(c1ccc(Cl)c(Cl)c1)N(Cc1ccc(OCCN2C(=O)CCC2=O)c(OC)c1)[C@H]1C[C@@H](C(=O)O)C1 (stereo partly drawn) [Example 141, cis-3-([1-(3,4-Dichloro-phenyl)-propyl]-{4-[2-(2,5-dioxo-pyrrolidin-1-yl)-ethoxy]-3-methoxy-benzyl}-amino)-cyclobutanecarboxylic acid]",200
14,"CCc1cc(CN(C[C@H]2CC[C@H](C(=O)O)CC2)[C@H]2CCc3cc(Cl)ccc32)ccc1OCCN1C(=O)CCC1=O [Example 71, trans-4-[(((S)-5-Chloro-indan-1-yl)-{4-[2-(2,5-dioxo-pyrrolidin-1-yl)-ethoxy]-3-ethyl-benzyl}-amino)-methyl]-cyclohexanecarboxylic acid]",176
15,"COc1cc(CN(C[C@@H]2CC[C@H](C(=O)O)C2)[C@@H](C)c2ccc(Cl)cc2)ccc1OCCN1C(=O)CCC1=O [Example 102, (1S,3R)-3-[([(S)-1-(4-Chloro-phenyl)-ethyl]-{4-[2-(2,5-dioxo-pyrrolidin-1-yl)-ethoxy]-3-methoxy-benzyl}-amino)-methyl]-cyclopentanecarboxylic acid]",154
16,"COc1cc(CN(CC2(C(=O)O)CC2)C2CCc3cc(Cl)ccc32)ccc1OCCN1C(=O)CCC1=O (centres unmarked) [Example 119, 1-[((5-Chloro-indan-1-yl)-{4-[2-(2,5-dioxo-pyrrolidin-1-yl)-ethoxy]-3-methoxy-benzyl}-amino)-methyl]-cyclopropanecarboxylic acid]",3200

# More lines, now with the values ahead:
row,IC50 [nM],SMILES
1,22,"COc1cc(CN(C[C@H]2CC[C@H](C(=O)O)CC2)[C@@H](C)c2ccc(Cl)cc2)ccc1OCCN1C(=O)CSC1=O [Example 34, trans-4-[([(S)-1-(4-Chloro-phenyl)-ethyl]-{4-[2-(2,4-dioxo-thiazolidin-3-yl)-ethoxy]-3-methoxy-benzyl}-amino)-methyl]-cyclohexanecarboxylic acid]"
2,56,"CCC(c1ccc2c(c1)CCO2)N(Cc1ccc(OCCN2C(=O)CCC2=O)c(C)c1)C[C@H]1CC[C@H](C(=O)O)CC1 (stereo partly drawn) [Example 69, trans-4-[([1-(2,3-Dihydro-benzofuran-5-yl)-propyl]-{4-[2-(2,5-dioxo-pyrrolidin-1-yl)-ethoxy]-3-methyl-benzyl}-amino)-methyl]-cyclohexanecarboxylic acid]"
3,487,"CCC(c1ccc(Cl)cc1)N(Cc1ccc(OCCn2c(=O)ccn(C)c2=O)c(C)c1)C[C@H]1CC[C@H](C(=O)O)CC1 (stereo partly drawn) [Example 64, trans-4-[([1-(4-Chloro-phenyl)-propyl]-{3-methyl-4-[2-(3-methyl-2,6-dioxo-3,6-dihydro-2H-pyrimidin-1-yl)-ethoxy]-benzyl}-amino)-methyl]-cyclohexanecarboxylic acid]"
4,345,"Cc1cc(CN(C[C@H]2CC[C@H](C(=O)O)CC2)C(C)c2ccc3c(c2)CCO3)ccc1OCCn1c(=O)ccn(C)c1=O (stereo partly drawn) [Example 60, trans-4-[([1-(2,3-Dihydro-benzofuran-5-yl)-ethyl]-{3-methyl-4-[2-(3-methyl-2,6-dioxo-3,6-dihydro-2H-pyrimidin-1-yl)-ethoxy]-benzyl}-amino)-methyl]-cyclohexanecarboxylic acid]"
5,123,"C[C@@H](c1ccc(Cl)cc1)N(Cc1ccc(OCCN2C(=O)CCC2=O)c(Cl)c1)C[C@H]1CC[C@H](C(=O)O)CC1 [Example 32, trans-4-({{3-Chloro-4-[2-(2,5-dioxo-pyrrolidin-1-yl)-ethoxy]-benzyl}-[(S)-1-(4-chloro-phenyl)-ethyl]-amino}-methyl)-cyclohexanecarboxylic acid]"
6,146,"Cc1ccc(C(C)N(Cc2ccc(OCCN3C(=O)CCC3=O)c(C)c2)C[C@H]2CC[C@H](C(=O)O)CC2)cc1 (stereo partly drawn) [Example 83, trans-4-{[{4-[2-(2,5-Dioxo-pyrrolidin-1-yl)-ethoxy]-3-methyl-benzyl}-(1-p-tolyl-ethyl)-amino]-methyl}-cyclohexanecarboxylic acid]"
7,347,"Cc1cc(CN([C@H]2C[C@@H](C(=O)O)C2)[C@H](C)c2ccc(Cl)cc2)ccc1OCCn1c(=O)ccn(C)c1=O [Example 136, cis-3-([(R)-1-(4-Chloro-phenyl)-ethyl]-{3-methyl-4-[2-(3-methyl-2,6-dioxo-3,6-dihydro-2H-pyrimidin-1-yl)-ethoxy]-benzyl}-amino)-cyclobutanecarboxylic acid]"
8,62,"CCC(c1ccc(Cl)cc1)N(Cc1ccc(OCCN2C(=O)CCC2=O)c(OC)c1)C[C@H]1CC[C@H](C(=O)O)CC1 (stereo partly drawn) [Example 63, trans-4-[([1-(4-Chloro-phenyl)-propyl]-{4-[2-(2,5-dioxo-pyrrolidin-1-yl)-ethoxy]-3-methoxy-benzyl}-amino)-methyl]-cyclohexanecarboxylic acid]"
9,99,"Cc1cc(CN(C[C@H]2CC[C@H](C(=O)O)CC2)[C@@H](C)c2ccc(Cl)cc2)ccc1OCCN1C(=O)CN(C)C1=O [Example 39, trans-4-[([(S)-1-(4-Chloro-phenyl)-ethyl]-{3-methyl-4-[2-(3-methyl-2,5-dioxo-imidazolidin-1-yl)-ethoxy]-benzyl}-amino)-methyl]-cyclohexanecarboxylic acid]"

# Same assay, conditions: read-out: % at 10 μM; at 10 μM; displacement of 125I-CXCL10
row,inhibition at 10 µM [%],SMILES
1,24,"Cc1cc(CN(C(C)c2ccc(Cl)c(F)c2)[C@H]2C[C@H](C(=O)O)C2)ccc1OCCN1C(=O)CCC1=O (stereo partly drawn) [Example 124, trans-3-([1-(4-Chloro-3-fluoro-phenyl)-ethyl]-{4-[2-(2,5-dioxo-pyrrolidin-1-yl)-ethoxy]-3-methyl-benzyl}-amino)-cyclobutanecarboxylic acid]"
